In ChEMBL document CHEMBL2203118, “Ethyl 2,4,6-trihydroxybenzoate is an agonistic ligand for liver X receptor that induces cholesterol efflux from macrophages without affecting lipid accumulation in HepG2 cells” (Bioorg Med Chem Lett, 2012):
Calls of active or inactive are those of the source. The rule behind the calls is not given here.

Key:
[1] = target: T1, Peroxisome proliferator-activated receptor alpha (Homo sapiens) (UniProt Q07869); assay: Transactivation of PPAR-alpha transfected in HEK293 cells at 10 uM after 24 hrs by luciferase reporter gene assay; format: cell-based
T1 sequence (whole entry): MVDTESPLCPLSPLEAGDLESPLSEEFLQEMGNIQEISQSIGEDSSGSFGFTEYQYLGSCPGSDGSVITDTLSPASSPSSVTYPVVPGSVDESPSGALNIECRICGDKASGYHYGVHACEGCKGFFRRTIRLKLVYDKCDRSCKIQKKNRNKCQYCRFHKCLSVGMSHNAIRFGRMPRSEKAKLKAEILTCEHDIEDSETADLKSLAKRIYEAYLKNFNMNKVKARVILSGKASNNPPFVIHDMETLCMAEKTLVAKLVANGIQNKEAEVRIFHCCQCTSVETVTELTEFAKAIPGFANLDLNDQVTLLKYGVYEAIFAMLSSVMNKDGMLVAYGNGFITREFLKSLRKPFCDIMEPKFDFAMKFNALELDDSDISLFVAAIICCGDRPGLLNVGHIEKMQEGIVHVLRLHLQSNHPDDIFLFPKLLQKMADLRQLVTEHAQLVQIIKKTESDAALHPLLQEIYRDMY

[2] = tested on: HepG2; assay: Induction of lipid accumulation in human HepG2 cells assessed as cellular triglyceride concentration at 1 uM; format: cell-based; conditions: hepg2, 1 µM
[3] = tested on: HepG2; assay: Upregulation of SREBP-1 gene expression in human HepG2 cells at 1 uM by immunoblot analysis; format: ADME, cell-based; conditions: hepg2, 1 µM
[4] = tested on: HepG2; assay: Upregulation of SCD1 gene expression in human HepG2 cells at 1 uM by qPCR analysis; format: ADME, cell-based; conditions: hepg2, 1 µM
[5] = tested on: HepG2; assay: Upregulation of SREBP-1 gene expression in human HepG2 cells at 1 uM by qPCR analysis; format: ADME, cell-based; conditions: hepg2, 1 µM
[6] = tested on: HepG2; assay: Upregulation of FAS gene expression in human HepG2 cells at 1 uM by qPCR analysis; format: ADME, cell-based; conditions: hepg2, 1 µM
[7] = tested on: HepG2; assay: Induction of lipid accumulation in human HepG2 cells assessed as increase in cellular triglyceride level at 1 uM by Oil Red O staining relative to control; format: cell-based; conditions: hepg2, 1 µM

Activity [1] | SMILES | Activity [2] | Activity [3] | Activity [4] | Activity [5] | Activity [6] | Activity [7]
Active | CC(C)(Oc1ccc(C(=O)c2ccc(Cl)cc2)cc1)C(=O)O |  |  |  |  |  | 
 | O=S(=O)(c1ccccc1)N(CC(F)(F)F)c1ccc(C(O)(C(F)(F)F)C(F)(F)F)cc1 [T091317] | Toxic | Toxic | Toxic | Toxic | Toxic | Toxic
